Data as given in patent US8916703B2, “Dithiinopyridazinone derivates” (Bayer Intellectual Property GmbH, priority 2010, dated 2014).

Legend:
[1] = logP by HPLC on reversed-phase column (EEC Directive 79/831 Annex V.A8); type: physicochemical; conditions: reversed-phase C18 HPLC column, 43° C., acidic range pH 2.7 (0.1% formic acid/acetonitrile), read-out: Log P
Description: The logP values reported in the preparation examples and tables above are determined in accordance with EEC Directive 79/831 Annex V.A8 by means of HPLC (High Performance Liquid Chromatography) on a reversed-phase column (C18). Temperature: 43° C. The determination with the LC-MS in the acidic range takes place at a pH of 2.7 using 0.1% aqueous formic acid and acetonitrile (containing 0.1% formic acid) as eluents; linear gradient from 10% acetonitrile to 95% acetonitrile. Calibration takes place using unbranched alkan-2-ones (having 3 to 16 carbon atoms) of which the logP values are known (logP values determined on the basis of the retention times, by linear interpolation between two successive alkanones).

Puccinia recondita = assay: Puccinia test (wheat)/protective; type: in vivo; conditions: wheat plants, protective spray, application rate 1500 ppm, evaluation 7-9 days after inoculation
Text: Puccinia Test (Wheat)/Protective
• Solvent: 49 parts by weight of N,N-dimethylformamide • Emulsifier: 1 part by weight of alkylaryl polyglycol ether
An appropriate preparation of active compound is produced by mixing 1 part by weight of active compound with the stated amounts of solvent and emulsifier and diluting the concentrate with water to the desired concentration. To test for protective activity, young wheat plants are sprayed with the preparation of active compound at the stated application rate. A day after the treatment, the plants are inoculated with a spore suspension of Puccinia recondita and then stand for 48 hours at 100% relative humidity and 22° C. Subsequently the plants stand at 80% relative humidity and a temperature of 20° C. After 7-9 days following inoculation, evaluation takes place. Here, 0% denotes an efficacy which corresponds to that of the control, whereas an efficacy of 100% means that no infestation is observed.

`CC(C)(C)n1ncc2c(c1=O)Sc1c(cnn(C(C)(C)C)c1=O)S2` [Compound 7, 2,8-di-tert-butyl[1,4]dithilino[2,3-d:5,6-d′]dipyridazine-1,9(2H,8H)-dione] gave a chromatographic logP [1] of 4.6 and an Efficacy in % (Puccinia recondita) of 70%.
